Assay results from BigSolDB 2.1.

Cc1ccc(S(C)(=O)=O)cc1
solubility (mole fraction)
Details	in DMF	in acetone	in acetonitrile	in ethanol	in ethyl acetate	in isopropanol	in methanol	in n-butanol	in n-propanol
278.15 K	0.123	0.0999	0.084	0.00721	0.0611	0.00415	0.0111	0.00408	0.00596
283.15 K	0.146	0.118	0.102	0.00993	0.0732	0.00579	0.0153	0.00599	0.00839
288.15 K	0.177	0.144	0.13	0.0137	0.0872	0.008	0.0207	0.00869	0.012
293.15 K	0.208	0.172	0.155	0.018	0.103	0.011	0.0282	0.0125	0.016
298.15 K	0.244	0.199	0.183	0.0241	0.123	0.0149	0.0376	0.0178	0.022
303.15 K	0.282	0.234	0.218	0.0321	0.144	0.0203	0.05	0.0252	0.03
308.15 K	0.332	0.274	0.258	0.042	0.171	0.0275	0.0657	0.0353	0.04
313.15 K	0.389	0.322	0.3	0.055	0.203	0.0367	0.0858	0.0492	0.052
318.15 K	0.45	0.379	0.359	0.0712	0.236	0.0491	0.111	0.0681	0.069
